Source: the supplement of paper PMC9663587

Tests used:
[1] = test system: SUM52PE; assay: GRmax, 72 h; higher = less effect;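 also: breast cell lines in 384-well plates, nine doses across a 10^4 range, Dye Drop imaging of viable cells vs DMSO and time-zero plates, GR 0 means no net growth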
[2] = test system: CAMA1; assay: GRmax, 72 h; higher = less effect;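 also: breast cell lines in 384-well plates, nine doses across a 10^4 range, Dye Drop imaging of viable cells vs DMSO and time-zero plates, GR 0 means no net growth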
[3] = test system: CAL120; assay: GRmax, 72 h; higher = less effect;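 also: breast cell lines in 384-well plates, nine doses across a 10^4 range, Dye Drop imaging of viable cells vs DMSO and time-zero plates, GR 0 means no net growth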
[4] = test system: T47D; assay: GRmax, 72 h; higher = less effect;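 also: breast cell lines in 384-well plates, nine doses across a 10^4 range, Dye Drop imaging of viable cells vs DMSO and time-zero plates, GR 0 means no net growth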
[5] = test system: HCC1937; assay: area over the GR curve, 72 h; higher = more effect;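 also: Dye Drop or Deep Dye Drop imaging of viable cells in 384-well plates (Hoechst nuclei, LIVE/DEAD dye), nine half-log doses, GR normalized to DMSO controls and time-zero plates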
[6] = test system: MDAMB453; assay: area over the GR curve, 72 h; higher = more effect;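 also: Dye Drop or Deep Dye Drop imaging of viable cells in 384-well plates (Hoechst nuclei, LIVE/DEAD dye), nine half-log doses, GR normalized to DMSO controls and time-zero plates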
[7] = test system: MDAMB231; assay: area over the GR curve, 72 h; higher = more effect;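 also: Dye Drop or Deep Dye Drop imaging of viable cells in 384-well plates (Hoechst nuclei, LIVE/DEAD dye), nine half-log doses, GR normalized to DMSO controls and time-zero plates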
[8] = test system: MDAMB361; assay: area over the GR curve, 72 h; higher = more effect;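 also: Dye Drop or Deep Dye Drop imaging of viable cells in 384-well plates (Hoechst nuclei, LIVE/DEAD dye), nine half-log doses, GR normalized to DMSO controls and time-zero plates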
[9] = test system: CAL851; assay: area over the GR curve, 72 h; higher = more effect
[10] = test system: HCC1419; assay: area over the GR curve, 72 h; higher = more effect
[11] = test system: EFM19; assay: area over the GR curve, 72 h; higher = more effect

Compound | GRmax, 72 h [1] [GR] | GRmax, 72 h [2] [GR] | GRmax, 72 h [3] [GR] | GRmax, 72 h [4] [GR] | area over the GR curve [5] [GR] | area over the GR curve [6] [GR] | area over the GR curve [7] [GR] | area over the GR curve [8] [GR] | area over the GR curve [9] [GR] | area over the GR curve [10] [GR] | area over the GR curve [11] [GR]
Cc1cc(C(C)Nc2ccccc2)c2nc(N3CCOCC3)cc(=O)n2c1 (stereo not given) [TGX221] (max 10 µM) | 0.755 | 0.85 | 1.02 | 0.799 | 0.0193 | -0.0643 | 0.0141 | -0.0911 | -0.0591 | -0.0488 | 0.0431
CN(C)C/C=C/C(=O)Nc1ccc(C(=O)N2CCC[C@@H](Nc3ncc(Cl)c(-c4c[nH]c5ccccc45)n3)C2)cc1 [THZ531] (max 1 µM) | -0.17 | -0.398 | -0.0211 | -0.141 | 0.176 | 0.537 | 0.205 | 0.682 | 0.36 | 0.21 | 0.167
CCC(=O)Nc1ccc(C(=O)Nc2ccc(Nc3ncc4c(n3)N(C)c3ccc(C)cc3C(=O)N4C)cc2)cc1 [FMF-03-145-1] | 0.0118 | 0.0253 | 0.191 | -0.0373 | 0.464 | 0.392 | 0.947 | 0.323 | 0.626 | 0.261 | 0.341
CN(C)C/C=C/C(=O)Nc1ccc(O[C@@H]2CCC[C@@H](Nc3ncc(Cl)c(-c4c[nH]c5ccccc45)n3)C2)cc1 [BSJ-01-175] (max 10 µM) | -0.673 | -0.712 | -0.272 | -0.719 | 0.462 | 1.08 | 0.991 | 1.32 | 0.822 | 0.39 | 0.3
CN1CCN(C(=O)c2ccc3cc(CCNc4ncnc5ccc(C#N)cc45)ccc3c2)CC1 [senexin b] (max 10 µM) | 0.742 | 0.229 | 0.856 | 0.213 | 0.286 | 0.193 | 0.0788 | 0.323 | 0.226 | 0.13 | 0.219
CC(=O)Nc1cccc(-n2c(=O)n(C3CC3)c(=O)c3c(Nc4ccc(I)cc4F)n(C)c(=O)c(C)c32)c1 (max 1 µM) | 0.577 | 0.553 | 0.415 | 0.58 | 0.138 | 0.279 | 0.722 | 0.219 | 0.41 | 0.285 | -0.1
CN(C)C/C=C/C(=O)Nc1ccc(C(=O)Nc2cccc(Nc3ncc(Cl)c(-c4c[nH]c5ccccc45)n3)c2)cc1 [THZ1] (max 1 µM) | -0.437 | -0.486 | -0.128 | -0.279 | 0.348 | 0.553 | 0.356 | 0.746 | 0.639 | 0.369 | 0.159
CCNC(=O)c1noc(-c2cc(C(C)C)c(O)cc2O)c1-c1ccc(CN2CCOCC2)cc1 [Luminespib/NVP-AUY922] (max 1 µM) | -0.0956 | -0.0698 | -0.115 | 0.0212 | 0.548 | 0.848 | 0.645 | 0.978 | 0.75 | 0.641 | 0.35
C[C@@H]1COCCN1c1cc(C2([S@](C)(=N)=O)CC2)nc(-c2cc[nH]c3nccc2-3)n1 [AZD6738] (max 10 µM) | -0.174 | 0.25 | 0.783 | 0.745 | -0.0947 | 0.0984 | -0.0233 | 0.161 | 0.071 | 0.0421 | 0.0109
C=CC(=O)Nc1ccc(C(=O)Nc2[nH]nc3c2CN(C(=O)N[C@H](CN(C)C)c2ccccc2)C3(C)C)cc1 [YKL-5-124] (max 10 µM) | 0.0084 | -0.604 | 0.182 | -0.146 | 0.861 | 0.834 | 0.878 | 1.14 | 1.2 | 1.01 | 0.8
CC[C@@]1(O)C(=O)OCc2c1cc1n(c2=O)Cc2cc3c(CN(C)C)c(O)ccc3nc2-1 [Topotecan] (max 10 µM) |  | -0.423 | -0.336 | -0.197 | 0.837 | 0.926 | 0.704 | 1.13 | 0.843 | 0.99 | 
CCCCOc1c(C(=O)c2c(F)cc(C)cc2F)c[nH]c2nncc1-2 (max 10 µM) | 0.299 | -0.0904 | 0.369 | 0.0035 | 0.917 | 0.384 | 0.334 | 0.56 | 0.672 | 0.301 | 0.497
CC(=O)O[C@H]1C(=O)[C@@]2(C)[C@H]([C@H](OC(=O)c3ccccc3)[C@]3(O)C[C@H](OC(=O)[C@H](O)[C@@H](NC(=O)c4ccccc4)c4ccccc4)C(C)=C1C3(C)C)[C@]1(OC(C)=O)CO[C@@H]1C[C@@H]2O [Paclitaxel] (max 1 µM) | -0.401 | -0.494 | -0.199 | -0.134 | 0.658 | 0.658 | 0.702 | 0.974 | 0.793 | 0.47 | 0.874
CCN1CCN(Cc2ccc(Nc3ncc(F)c(-c4cc(F)c5nc(C)n(C(C)C)c5c4)n3)nc2)CC1 (max 10 µM) | 0.332 | 0.222 | -0.141 | -0.0412 | 0.102 | 0.85 | 0.675 | 0.828 | 0.228 | 0.433 | 0.478
CN(C)C(=O)c1cc2cnc(Nc3ccc(N4CCNCC4)cn3)nc2n1C1CCCC1 [LEE011/Ribociclib] (max 10 µM) | 0.528 | 0.122 | 0.632 | 0.15 | 0.0156 | 0.555 | 0.365 | 0.784 | 0.0857 | 0.293 | 0.315
Cc1nc(Nc2ncc(C(=O)Nc3c(C)cccc3Cl)s2)cc(N2CCN(CCO)CC2)n1 [Dasatinib] (max 10 µM) | -0.322 | 0.679 | 0.176 | 0.496 | 0.442 | 0.0776 | 0.647 | 0.351 | 0.57 | 0.311 | 0.685
CO[C@@H](C)Cn1c(=O)n(C)c2cnc3ccc(-c4cncc(C(C)(C)O)c4)cc3c21 (max 10 µM) | -0.125 | -0.458 | 0.0419 | -0.289 | 0.485 | 0.851 | 0.607 | 1.47 | 0.771 | 0.979 | 0.813
